Where “and” joins values, the source holds several entries; their conditions need not be identical. Equal entries are not always repeated. Where two headings read alike, the source gives them in different places. Where a SMILES comes first, the peptide text is derived from it.
Key:
[1] = biological target: recombinant human dipeptidyl peptidase IV (DPPIV) (Homo sapiens (Human), UniProt P27487); assay: In vitro IC50 assay, dipeptidyl peptidase IV (Example 15); format: biochemical; conditions: Gly-Pro-AMC, room temperature
Protocol: (§1) The purpose of this assay is to determine the IC50 of various inhibitors against recombinant human dipeptidyl peptidase IV (DPPIV), fibroblast activation protein (FAP) or prolyl oligopeptidase (PREP).
(§2) The assays are conducted in the following steps: • 1 Dissolve the compound in DMSO to a final concentration of 100 mM. From this, prepare a 1 mM stock at pH 7.5 in 50 mM Tris, 140 mM NaCl Buffer (FAP)/pH 7.5 in 25 mM Tris, 250 mM NaCl Buffer/pH 8.0 140 mM NaCl Buffer (PREP). • 2. Serial dilute (1:10) the 1 mM compound stocks prepared previously into the appropriate assay buffer (FAP: 50 mM Tris, 140 mM NaCl, pH 7.5/PREP: 25 mM Tris, 0.25 M NaCl, pH 7.5/DPPIV: 25 mM Tris, pH 8.0) to one row of a 96-well plate. • 3. […] Dilute the enzymes into their appropriate assay buffers. The final enzyme concentrations should be 0.1, 1.2, and 0.6 nM for DPPIV, FAP and PREP respectively. Add 180 μL to each well needed in columns 2-10. Column 1 (A,B,C) should be prepared with 200 ul of appropriate assay buffer as control. Column 1 (D,E,F,G,H) should be prepared with 20 ul of appropriate assay buffer and 180 ul enzyme as no inhibitor control. • 5. Add 20 μL of the compound of interest from the dilution plate prepared in step 2 to columns 2-10 of the assay plate where appropriate. Each sample should be tested in triplicate. Allow this to incubate for 10 minutes at room temperature, shaking the plate for the first two minutes. • 6. Add 10 μL of 20× substrate prepared in step 3 to each well and allow this to incubate for 15 minutes at room temperature, shaking the plate for the first two minutes. • 7. Read the fluorescence at λex: 380, λem: 460. (DPcore=[dAla|dSerGly]-[boroPro|Pro-nitrile], XXaa=alpha-amino acid)

[2] = Solubility in water after lyophilization
[3] = Stability in aqueous solution of pH about 3; conditions: during HPLC purification and subsequent lyophilization
[4] = biological target: recombinant human fibroblast activation protein (FAP) (Homo sapiens (Human), UniProt Q12884); assay: In vitro IC50 assay, fibroblast activation protein (Example 15); format: biochemical
Protocol: as §1, §2

[5] = biological target: recombinant human FAP (Homo sapiens (Human), UniProt Q12884); assay: In vitro enzyme IC50 assay, FAP (Example 10); format: biochemical; conditions: 10 min preincubation at 25° C., Z-Gly-Pro-AMC
Protocol: Biological Materials: For the in vitro IC50 determination assays, recombinant human DPPIV, DPP9, FAP, and PREP were purchased from R&D Systems, and DPP8 was from Biomol International. Buffer systems used were A (25 mM Tris, pH 8.0), B (50 mM Tris, pH 7.5), C (50 mM Tris, 140 mM NaCl, pH 7.5), D (25 mM Tris, 250 mM NaCl, pH 7.5), and E (20 mM Tris, 20 mM KCl, pH 7.4). […] Substrate Specificity Assay. Peptide libraries (0.21 mM) were incubated for 24 h with 1 nM FAP in buffer E at 37° C. The reaction was quenched by the addition of 1.2 N HCl. The samples were analyzed by reverse-phase HPLC-MS on a Thermo Finnigan LCQ Duo, quantifying the peaks in the resulting base peak chromatograms. Relative cleavage values were determined by comparing the postquench abundance of intact peptides to those in the initial library.
In Vitro Enzyme IC50 Assays. Enzymatic activity of DPPIV, DPP8, DPP9, FAP, and PREP was measured at 25° C. on a Molecular Devices M2e multidetection microtiter plate reader, monitoring the fluorescence at an excitation wavelength of 380 nm and an emission wavelength of 460 nm. The substrate was either H-Gly-Pro-AMC for the DPPIV, DPP8, and DPP9 assays or Z-Gly-Pro-AMC for the FAP and PREP assays. The reaction mixture contained […], enzyme, buffer A (DPPIV and DPP9), buffer B (DPP8), buffer C (FAP), or buffer D (PREP) and a suitable amount of inhibitor (ranging between 10-4 and 10-11 M) in a total volume of 210 μL. The final enzyme concentrations were 0.1, 0.8, 0.4, 1.2, and 0.6 nM for DPPIV, DPP8, DPP9, FAP, and PREP, respectively. […] Those prepared in pH 2.0 solution were preincubated at 25° C. for 4 h prior to dilution. Immediately prior to the commencement of the experiment, the 100 mM stocks were further diluted to 10−3 M in the appropriate assay buffer, from which 1:10 serial dilutions were prepared. All inhibitors were tested in triplicate.

[6] = biological target: recombinant human prolyl oligopeptidase (PREP) (Homo sapiens (Human), UniProt P48147); assay: In vitro IC50 assay, prolyl oligopeptidase (Example 15); format: biochemical; conditions: Z-Gly-Pro-AMC, room temperature; read-out: PREP IC50
Protocol: as §1, §2

[7] = Z-Gly-Pro-AMC, room temperature, read-out: FAP IC50

recombinant human fibroblast activation protein (FAP), sequence (Q12884 whole entry): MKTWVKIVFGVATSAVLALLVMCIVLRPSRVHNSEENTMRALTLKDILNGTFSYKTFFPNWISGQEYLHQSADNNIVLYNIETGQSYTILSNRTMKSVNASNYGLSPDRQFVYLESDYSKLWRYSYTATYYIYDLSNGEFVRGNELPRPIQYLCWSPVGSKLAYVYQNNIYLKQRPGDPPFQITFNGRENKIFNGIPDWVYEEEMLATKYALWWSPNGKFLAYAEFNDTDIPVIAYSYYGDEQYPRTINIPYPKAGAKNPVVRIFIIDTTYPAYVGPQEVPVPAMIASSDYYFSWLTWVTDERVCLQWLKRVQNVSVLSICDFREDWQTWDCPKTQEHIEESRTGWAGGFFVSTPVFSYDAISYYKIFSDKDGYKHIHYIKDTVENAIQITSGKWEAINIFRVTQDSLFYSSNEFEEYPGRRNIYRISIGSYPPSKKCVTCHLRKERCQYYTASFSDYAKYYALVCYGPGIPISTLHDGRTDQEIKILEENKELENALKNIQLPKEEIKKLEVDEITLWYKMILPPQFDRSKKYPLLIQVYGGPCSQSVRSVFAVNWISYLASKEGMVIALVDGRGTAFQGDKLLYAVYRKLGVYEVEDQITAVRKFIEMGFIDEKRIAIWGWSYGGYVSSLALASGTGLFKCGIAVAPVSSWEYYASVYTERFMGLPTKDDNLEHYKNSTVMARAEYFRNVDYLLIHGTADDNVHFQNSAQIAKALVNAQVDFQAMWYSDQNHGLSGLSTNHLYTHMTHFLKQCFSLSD
recombinant human FAP, sequence (Q12884 whole entry): as above
recombinant human prolyl oligopeptidase (PREP), sequence (P48147 whole entry): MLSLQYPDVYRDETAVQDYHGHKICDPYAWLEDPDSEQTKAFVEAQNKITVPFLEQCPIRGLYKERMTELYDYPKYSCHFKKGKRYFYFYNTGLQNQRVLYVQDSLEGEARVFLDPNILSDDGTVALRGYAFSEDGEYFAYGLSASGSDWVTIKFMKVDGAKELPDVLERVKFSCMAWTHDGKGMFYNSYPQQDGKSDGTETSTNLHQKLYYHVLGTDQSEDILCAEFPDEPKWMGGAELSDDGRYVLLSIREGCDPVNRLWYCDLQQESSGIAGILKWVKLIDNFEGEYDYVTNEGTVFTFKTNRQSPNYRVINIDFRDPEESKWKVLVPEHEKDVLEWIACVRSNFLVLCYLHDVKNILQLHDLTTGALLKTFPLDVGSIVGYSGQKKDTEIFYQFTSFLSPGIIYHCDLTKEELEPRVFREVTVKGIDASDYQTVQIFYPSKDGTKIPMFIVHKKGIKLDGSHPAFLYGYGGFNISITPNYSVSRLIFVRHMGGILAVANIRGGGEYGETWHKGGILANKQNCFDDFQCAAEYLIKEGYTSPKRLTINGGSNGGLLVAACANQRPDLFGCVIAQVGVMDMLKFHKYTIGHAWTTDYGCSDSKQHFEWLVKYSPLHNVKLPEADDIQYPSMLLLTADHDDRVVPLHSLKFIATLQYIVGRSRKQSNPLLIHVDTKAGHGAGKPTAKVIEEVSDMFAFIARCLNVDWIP
recombinant human dipeptidyl peptidase IV (DPPIV), sequence (P27487 whole entry): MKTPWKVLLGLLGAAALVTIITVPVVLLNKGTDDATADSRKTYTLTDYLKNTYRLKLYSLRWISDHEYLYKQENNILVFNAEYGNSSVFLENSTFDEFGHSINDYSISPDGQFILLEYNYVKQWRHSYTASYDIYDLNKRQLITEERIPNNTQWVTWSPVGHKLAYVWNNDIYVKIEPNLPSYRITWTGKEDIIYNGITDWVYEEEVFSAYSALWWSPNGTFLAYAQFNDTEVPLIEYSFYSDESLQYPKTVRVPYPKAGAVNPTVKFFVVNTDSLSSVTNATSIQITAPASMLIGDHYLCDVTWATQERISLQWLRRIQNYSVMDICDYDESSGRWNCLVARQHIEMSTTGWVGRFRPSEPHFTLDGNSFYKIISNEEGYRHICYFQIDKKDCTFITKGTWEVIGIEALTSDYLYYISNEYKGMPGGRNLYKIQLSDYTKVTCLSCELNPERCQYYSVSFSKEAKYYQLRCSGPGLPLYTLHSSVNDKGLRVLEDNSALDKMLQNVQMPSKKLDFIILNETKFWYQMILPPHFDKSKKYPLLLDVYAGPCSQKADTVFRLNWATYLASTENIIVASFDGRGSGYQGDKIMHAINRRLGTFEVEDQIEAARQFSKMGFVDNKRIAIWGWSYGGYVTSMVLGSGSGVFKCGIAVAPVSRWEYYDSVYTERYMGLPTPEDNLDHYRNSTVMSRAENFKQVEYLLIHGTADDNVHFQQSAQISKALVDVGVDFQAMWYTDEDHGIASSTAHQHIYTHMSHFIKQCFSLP

Molecule	IC50 [1] [nM]	solubility [2] [mg/mL]	degradation in aqueous solution [3]	IC50 [4, 7]	IC50 [5] [nM]	further results
C[C@@H](NC(=O)c1ccc(CNC(=O)CN2CCN3CCN4CCN(CC2)CC(=O)[O][Lu]([O]C(=O)C3)[O]C(=O)C4)cc1)C(=O)N1CCC[C@H]1B(O)O [Compound 6555LU]	> 100000	> 50	did not observe any sign of degradation	–	–	–
C[C@@H](NC(=O)c1ccc(CNC(=O)CN2CCN3CCN4CCN(CC2)CC(=O)[O][Ga]([O]C(=O)C3)[O]C(=O)C4)cc1)C(=O)N1CCC[C@H]1B(O)O [Compound 6555GA]	> 100000	> 50	did not observe any sign of degradation	–	–	–
C[C@@H](NC(=O)[C@H]1CC[C@H](CNC(=O)CN2CCN3CCN4CCN(CC2)CC(=O)[O][Lu]([O]C(=O)C3)[O]C(=O)C4)CC1)C(=O)N1CCC[C@H]1B(O)O [Compound 6952LU, DOTA(Lu)-TXA-D-alaboroPro]	> 100000	> 50	did not observe any sign of degradation	–	–	–
C[C@@H](NC(=O)[C@H](CO)NC(=O)CN1CCN2CCN(CC(=O)O)CCN(CC1)CC(=O)[O][Cu][O]C(=O)C2)C(=O)N1CCC[C@H]1B(O)O [Compound 6509CU, DOTA[(Cu(II)]-Ser-D-Ala-boroPro]	–	–	–	128 nM	128	–
DOTA[Cu(II)]-EACA-HyBz-D-Ala-boroPro [Compound 6486]	–	–	–	2.8 nM	2.8	–
C[C@@H](NC(=O)[C@H]1CC[C@H](CNC(=O)CN2CCN3CCN4CCN(CC2)CC(=O)[O][Ga]([O]C(=O)C3)[O]C(=O)C4)CC1)C(=O)N1CCC[C@H]1B(O)O [Compound 6952GA, DOTA(Ga)-TXA-D-alaboroPro]	–	> 50	did not observe any sign of degradation	–	–	–
C[C@@H](NC(=O)CNC(=O)CN1CCN(CC(=O)O)CCN(CC(=O)O)CCN(CC(=O)O)CC1)C(=O)N1CCC[C@H]1B(O)O [Compound 6512, DOTA-Gly-D-Ala-boroPro]	–	–	–	–	73.1	–
CC(C)[C@H](NC(=O)CNC(=O)CNC(=O)CN1CCN2CCN(CC(=O)O)CCN(CC1)CC(=O)[O][Cu][O]C(=O)C2)C(=O)N[C@H](C)C(=O)N1CCC[C@H]1B(O)O [Compound 6522CU, DOTA[(Cu(II)]-Gly-Gly-Val-D-Ala-boroPro] (HELM PEPTIDE1{[O=C(O)CN1CCN2CCN(CC(=O)[*:2])CCN(CC1)CC(=O)[O][Cu][O]C(=O)C2].G.G.V.[dA].[OB(O)[C@@H]1CCCN1[*:1]]}$$$$V2.0)	–	–	–	3.5 nM	8.7	–
C[C@@H](NC(=O)c1ccc(CNC(=O)CN2CCN(CC(=O)O)CCN(CC(=O)O)CCN(CC(=O)O)CC2)cc1)C(=O)N1CCC[C@H]1B(O)O [Compound 6555, DOTA-aminomethyl-Bz-D-Ala-boroPro]	> 100000	> 50	did not observe any sign of degradation	–	–	–
C[C@H](NC(=O)CN1CCN(CC(=O)O)CCN(CC(=O)O)CCN(CC(=O)O)CC1)C(=O)N[C@H](C)C(=O)N1CCC[C@H]1B(O)O [Compound 6511, DOTA-Ala-D-Ala-boroPro]	–	–	–	–	71.7	–
CC(C)[C@H](NC(=O)CN1CCN(CC(=O)O)CCN(CC(=O)O)CCN(CC(=O)O)CC1)C(=O)N[C@H](C)C(=O)N1CCC[C@H]1B(O)O [Compound 6508, DOTA-Val-DAla-boroPro]	–	–	–	–	62	–
CC(C)[C@H](NC(=O)CNC(=O)CNC(=O)CN1CCN(CC(=O)O)CCN(CC(=O)O)CCN(CC(=O)O)CC1)C(=O)N[C@H](C)C(=O)N1CCC[C@H]1B(O)O [Compound 6522L, DOTA-Gly-Gly-Val-alaboroPro(L-ala)] (HELM PEPTIDE1{[O=C(O)CN1CCN(CC(=O)O)CCN(CC(=O)[*:2])CCN(CC(=O)O)CC1].G.G.V.[dA].[OB(O)[C@@H]1CCCN1[*:1]]}$$$$V2.0)	3400	–	–	–	–	IC50 [6]: 7.6 nM; IC50 [4]: > 100000 nM
C[C@@H](NC(=O)c1ccc(NNC(=O)CCCNC(=O)CN2CCN3CCN4CCN(CC2)CC(=O)[O][Gd]([O]C(=O)C3)[O]C(=O)C4)cc1)C(=O)N1CCC[C@H]1B(O)O [Compound 6489Gd, DOTA[Gd]-GABA-HyBz-D-Ala-boroPro]	–	–	–	–	1.1	–
C[C@@H](NC(=O)c1ccc(NNC(=O)CCCCCC2=C(/C=C/C3=C(Oc4ccc(S(=O)(=O)O)cc4)C(=C/C=C4/N(CCCCS(=O)(=O)O)c5ccc(S(=O)(=O)O)cc5C4(C)C)/CCC3)C(C)(C)c3cc(S(=O)(=O)O)ccc32)nc1)C(=O)N1CCC[C@H]1B(O)O [Compound 4613B, IRDye800CW-3860]	> 100000	–	–	8.8 nM and 10 nM	–	IC50 [6]: 390 nM
C[C@@H](NC(=O)c1ccc(NNC(=O)CCCNC(=O)CN2CCN3CCN4CCN(CC2)CC(=O)[O][Ga]([O]C(=O)C3)[O]C(=O)C4)cc1)C(=O)N1CCC[C@H]1B(O)O [Compound 6489GA]	> 100000	–	–	39 nM	–	IC50 [6]: 3400 nM

Reference: patent US11707539B2, “FAP-targeted radiopharmaceuticals and imaging agents, and uses related thereto” (Trustees of Tufts College, priority 2020, dated 2023)
